Laboratory results reported in PubChem BioAssay (NCI).
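Protocol summary: plate cells (96-well), add compound at 5 concentrations, incubate 48 h, interpolate endpoints linearly. The concentration for 50% growth inhibition is given as GI50. TGI marks complete inhibition of growth.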

Experiments:
Assay in all cases: DTP human tumour cell line panel, 48 h
[1] = test system: KM20L2 colon
[2] = test system: DMS 273 small cell lung
[3] = test system: DLD-1 colon
[4] = test system: SNB-78 CNS
[5] = test system: XF 498 CNS
[6] = test system: DMS 114 small cell lung
[7] = test system: LXFL 529 NSCLC
[8] = test system: HOP-18 NSCLC
[9] = test system: RXF-631 renal

SMILES | TGI [1] [µM] | TGI [2] [µM] | TGI [3] [µM] | TGI [4] [µM] | TGI [5] [µM] | TGI [6] [µM] | TGI [7] [µM] | TGI [8] [µM] | TGI [9] [µM] | GI50 [1] [µM] | GI50 [2] [µM] | GI50 [3] [µM] | GI50 [4] [µM] | GI50 [5] [µM] | GI50 [8] [µM]
O=C(O)/C=C/c1ccncc1 | > 100 | > 100 | > 100 | > 100 | > 100 | > 100 | > 100 |  |  |  |  |  |  |  | 
Cc1ccc(NCCN(C)C)c2c(=O)c3cc(O)ccc3sc12 | 22 | 15.9 | 19.9 | 33.7 | 17.2 | 28 | 21.7 | 15.3 |  |  |  |  |  |  | 
CC(C)=CCC/C(C)=C/C=C/C(C)=C/C1C[C@@]2(C(O)O1)[C@H](CCCO)/C(=C(/C)C=O)CC[C@]2(C)O (stereo partly drawn) | 29.1 | 7.82 | 44.4 | 42 | 32.7 | 27.4 |  | 33.4 |  |  |  |  |  |  | 
Cc1ccc(NC(=O)C(=O)Cc2cccc[n+]2[O-])cc1C | > 100 |  | > 100 | > 100 | > 100 | > 100 | > 100 | > 100 |  |  |  |  |  |  | 
CC(C)=CC(=O)c1c(C(=O)O)nc2ccccc2[n+]1[O-] | > 100 | > 100 | > 100 | > 100 |  | > 100 | > 100 |  | > 100 |  |  |  |  |  | 
CC1(Cl)CC(C)(/C=C/Cl)C(Cl)CC1Cl (stereo not drawn) | 31.6 |  | 35.7 | 46.8 | 27.4 |  | 28.3 |  | 28.7 |  |  |  |  |  | 
C(=C\c1c2oc(-c3ccccc3)cc(-c3ccccc3)c-2c2ccccc12)/C=C1\c2ccccc2-c2c(-c3ccccc3)cc(-c3ccccc3)[o+]c21 | > 100 | > 100 | > 100 | > 100 | > 100 | > 100 | > 100 |  |  |  |  |  |  |  | 
N#CC(NNC(=O)c1ccccc1O)c1c(O)ccc2ccccc12 (stereo not drawn) | 68 | 14.2 | > 100 | > 100 |  | 5.14 | 33.4 | 8.2 |  |  |  |  |  |  | 
COC(=O)C(NC(=O)c1ccccc1)C(c1c(O)cc(O)cc1O)P(=O)(OC)OC (stereo not drawn) | > 100 | > 100 | > 100 |  | > 100 | > 100 | > 100 |  | > 100 |  |  |  |  |  | 
Cn1c(NC(=O)NC23CC4CC(CC(C4)C2)C3)nc2ccccc21 | > 100 | > 100 | > 100 | 97 |  |  | > 100 | > 100 |  |  |  |  |  |  | 
O=C(c1ccccc1)c1cc(Cl)ccc1NCn1nnc2ccccc21 | > 100 | > 100 | > 100 |  | > 100 | > 100 | > 100 | > 100 |  |  |  |  |  |  | 
c1cncc([O][Ge]([O]c2cccnc2)([O]c2cccnc2)[O]c2cccnc2)c1 | > 100 | > 100 | > 100 | > 100 | > 100 |  |  | > 100 |  | > 100 | > 100 | > 100 | > 100 | > 100 | > 100
CC(=O)[C@]1(O)Cc2c(O)c3c(c(O)c2[C@@H](OC2CC(N)C(O)C(C)O2)C1)C(=O)c1c(OCc2ccccc2)cccc1C3=O (stereo partly drawn) |  |  |  | 36.1 | 14.5 | 2.55 | 2.38 | 3.33 |  |  |  |  |  |  | 
